Laboratory results: publication PMC6160999, “Pharmacokinetics, Tissue Distribution and Excretion of a Novel Diuretic (PU-48) in Rats” (Pharmaceutics, 2018)
Several values for one entry are separate records, joined by “and”; a condition that tells them apart may be missing. Equal entries are not always repeated. Where two headings read alike, the source gives them in different places.

What was measured:
[1] = Tissue distribution after single oral PU-48 SNEDDS; format: in vivo; details: rat, oral PU-48 SNEDDS 12 mg/kg
Experimental: (§1) Internal standard (IS, 25 μL) was added to 50 μL plasma, urine, or bile sample in a clean tube, placed into a water bath at 37 °C, and dried under a gentle stream of nitrogen gas, followed by the addition of 0.5 mL of ethyl acetate for liquid-liquid extraction. The mixture was shaken by a vortex mixer for 3 min, and then centrifuged at 8000 rpm (4200× g) for 10 min at 4 °C. After centrifugation, the upper organic phase was transferred into a clean centrifuge tube and then dried it again. The combined upper organic phases were evaporated to dryness at 37 °C under a gentle stream of nitrogen gas. The residue was reconstituted with 50 μL acetonitrile and then centrifuged at 13,000 rpm (12,000× g) for 10 min at 4 °C, the upper liquid was transferred into sample vials. Finally, 5 μL aliquots were injected into the LC–MS/MS system to analyze. Each tissue samples were homogenized in normal saline (0.9% NaCl, 1:3, w/v), and then centrifuged at 10,000× g for 10 min to get the supernatant. Other steps were the same as plasma sample preparation.
Thirty rats were divided randomly into five groups and the rats were given single orally administration of PU-48 (12 mg/kg, 1.2 mg/mL in the SNEDDS formulation). […] After the final time point, the rats were sacrificed and thirteen tissues (liver, spleen, lung, kidney, heart, muscle, colon, intestine, stomach, bladder, testicle, adipose, brain) were collected. Tissues samples were rinsed with ice-cold 0.9% normal saline and blotted dry with filter paper. All the samples were weighted and stored at −20 °C until analysis.

[2] = Bile excretion in bile duct-cannulated rats; format: in vivo; details: bile duct-cannulated rat, oral PU-48 SNEDDS 12 mg/kg
Experimental: as §1
Six male rats were given single orally administration of PU-48 (12 mg/kg, 1.2 mg/mL in the SNEDDS formulation) and housed in separate stainless-steel metabolism cages. Both feces and urine samples were collected at 0–1, 1–2, 2–4, 4–6, 6–8, 8–12, 12–24, 24–48, 48–72 and 72–96 h. In a separate study, bile samples were collected 0–1, 1–2, 2–4, 4–6, 6–8, 8–12, 12–24, 24–48, 48–72 and 72–96 h after oral administration of PU-48 (12 mg/kg, 1.2 mg/mL in the SNEDDS formulation) to six bile duct-cannulated rats.

[3] = Urine and feces excretion after single oral PU-48 SNEDDS; format: in vivo; details: rat, oral PU-48 SNEDDS 12 mg/kg
[4] = cited from earlier work
[5] = bladder, read-out: Concentration of PU-48 in bladder
[6] = brain, read-out: Concentration of PU-48 in brain
[7] = colon, read-out: Concentration of PU-48 in colon
[8] = fat, read-out: Concentration of PU-48 in fat
[9] = heart, read-out: Concentration of PU-48 in heart
[10] = intestine, read-out: Concentration of PU-48 in intestine
[11] = kidney, read-out: Concentration of PU-48 in kidney
[12] = liver, read-out: Concentration of PU-48 in liver
[13] = lung, read-out: Concentration of PU-48 in lung
[14] = male, testicle, read-out: Concentration of PU-48 in testicle
[15] = muscle, read-out: Concentration of PU-48 in muscle
[16] = plasma, read-out: Concentration of PU-48 in plasma
[17] = spleen, read-out: Concentration of PU-48 in spleen
[18] = stomach, read-out: Concentration of PU-48 in stomach

`COC(=O)c1sc2nc3ccc(OC)cc3cc2c1N` [PU-48, Methyl 3-amino-6-methoxythieno [2,3-b] quinoline-2-carboxylate] showed a concentration at 0.5 h [1, 5] of 258 ± 94.2 ng/g, a concentration at 1 h [1, 5] of 368 ± 124 ng/g and a concentration at 6 h [1, 5] of 43.4 ± 10.7 ng/g. The concentration at 12 h [1, 5] was 6.1 ± 3.2 ng/g, the concentration at 24 h [1, 5] was 8.6 ± 6.5 ng/g and the concentration at 0.5 h [1, 6] was 111 ± 23.3 ng/g. The concentration at 1 h [1, 6] was 68.1 ± 52.7 ng/g, the concentration at 6 h [1, 6] was 15.7 ± 19.3 ng/g and the concentration at 12 h [1, 6] was 1.7 ± 1.5 ng/g. The concentration at 0.5 h [1, 7] was 90.4 ± 30 ng/g, the concentration at 1 h [1, 7] was 172 ± 89.5 ng/g and the concentration at 6 h [1, 7] was 35.2 ± 14.7 ng/g. For the same molecule, the concentration at 12 h [1, 7] was 28.6 ± 21.7 ng/g, the concentration at 24 h [1, 7] was 14.1 ± 5.6 ng/g and the concentration at 0.5 h [1, 8] was 481 ± 398 ng/g. The concentration at 1 h [1, 8] was 99.3 ± 26.9 ng/g, the concentration at 6 h [1, 8] was 52.3 ± 43.2 ng/g and the concentration at 12 h [1, 8] was 2.7 ± 1.9 ng/g. It also gave a concentration at 24 h [1, 8] of 0.7 ± 0.6 ng/g, a concentration at 0.5 h [1, 9] of 251 ± 78.4 ng/g and a concentration at 1 h [1, 9] of 125 ± 31 ng/g. The concentration at 6 h [1, 9] was 11.3 ± 11.2 ng/g, the concentration at 24 h [1, 9] was 0.5 ng/g and the concentration at 0.5 h [1, 10] was 655 ± 89.3 ng/g. For the same molecule, the concentration at 1 h [1, 10] was 777 ± 277 ng/g, the concentration at 6 h [1, 10] was 209 ± 166 ng/g and the concentration at 12 h [1, 10] was 45.4 ± 18.9 ng/g. It also gave a concentration at 24 h [1, 10] of 9 ± 4.7 ng/g, a concentration at 0.5 h [1, 11] of 416 ± 138 ng/g and a concentration at 1 h [1, 11] of 297 ± 241 ng/g. The concentration at 6 h [1, 11] was 44.5 ± 33.9 ng/g, the concentration at 12 h [1, 11] was 4.7 ± 1.1 ng/g and the concentration at 24 h [1, 11] was 5.3 ± 3.4 ng/g. It also gave a concentration at 0.5 h [1, 12] of 622 ± 183 ng/g, a concentration at 1 h [1, 12] of 534 ± 228 ng/g and a concentration at 6 h [1, 12] of 42.7 ± 27.3 ng/g. It also gave a concentration at 12 h [1, 12] of 13.4 ± 3.1 ng/g, a concentration at 24 h [1, 12] of 20.4 ± 12.2 ng/g and a concentration at 0.5 h [1, 13] of 231 ± 79.3 ng/g. For the same molecule, the concentration at 1 h [1, 13] was 174 ± 91.4 ng/g, the concentration at 6 h [1, 13] was 7.2 ± 5.7 ng/g and the concentration at 12 h [1, 13] was 0.9 ± 0.1 ng/g. It also gave a concentration at 24 h [1, 13] of 1.3 ± 0.9 ng/g, a concentration at 0.5 h [1, 14] of 34.2 ± 21.2 ng/g and a concentration at 1 h [1, 14] of 51.7 ± 24.4 ng/g. For the same molecule, the concentration at 6 h [1, 14] was 9.5 ± 8.5 ng/g, the concentration at 12 h [1, 14] was 1.5 ± 0.7 ng/g and the concentration at 24 h [1, 14] was 1.4 ± 1.1 ng/g. It also gave a concentration at 0.5 h [1, 15] of 39.8 ± 28.6 ng/g, a concentration at 1 h [1, 15] of 52 ± 25.5 ng/g and a concentration at 6 h [1, 15] of 4.5 ± 3.5 ng/g. The concentration at 12 h [1, 15] was 2 ± 1.9 ng/g, the concentration at 24 h [1, 15] was 1.4 ± 1.5 ng/g and the concentration at 0.5 h [1, 16] was 277 ± 42.4 ng/mL. It also gave a concentration at 1 h [1, 16] of 119 ± 63.5 ng/mL, a concentration at 6 h [1, 16] of 16.8 ± 26.4 ng/mL and a concentration at 12 h [1, 16] of 2.4 ± 1.7 ng/mL. The concentration at 24 h [1, 16] was 0.3 ± 0.1 ng/mL, the “Peak concentration of PU-48 in brain” value [1] was 111.1 ± 23.3 ng/mL and the “Blood brain barrier crossing” value ([1]; inferred from brain concentration) was “could cross the blood brain barrier (BBB)”. It also gave a Tmax ([1]; thirteen tissues, read-out: Peak time (Tmax) of PU-48 in analyzed tissues) of 30 to 60 min, a concentration at 0.5 h [1, 17] of 266 ± 120 ng/g and a concentration at 1 h [1, 17] of 161 ± 64 ng/g. For the same molecule, the concentration at 6 h [1, 17] was 15.2 ± 12.9 ng/g, the concentration at 12 h [1, 17] was 3.8 ± 5.7 ng/g and the concentration at 24 h [1, 17] was 9.9 ± 12 ng/g. For the same molecule, the concentration at 0.5 h [1, 18] was 887 ± 235 ng/g, the concentration at 1 h [1, 18] was 2020 ± 822 ng/g and the concentration at 6 h [1, 18] was 509 ± 160 ng/g. For the same molecule, the concentration at 12 h [1, 18] was 104 ± 28.4 ng/g, the concentration at 24 h [1, 18] was 7 ± 3.1 ng/g and the concentration at 24 h ([1]; tissues except liver and colon, read-out: Concentrations of PU-48 in tissues except liver and colon) was < 10 ng/g. For the same molecule, the “Accumulative Excretion Amount, bile” value ([2]; 0–1 h) was 78.5 ± 60.3 ng, the “Accumulative Excretion Percentage, bile” value ([2]; 0–1 h) was 0.0027 ± 0.0021% and the “Excretion Amount, bile” value ([2]; 0–1 h) was 78.5 ± 60.3 ng. The “PU-48 Concentration in bile” value ([2]; 0–1 h) was 143.8 ± 72.5 ng/mL, the “Accumulative Excretion Amount, bile” value ([2]; 1–2 h) was 153.6 ± 115.5 ng and the “Accumulative Excretion Percentage, bile” value ([2]; 1–2 h) was 0.0054 ± 0.0041%. For the same molecule, the “Excretion Amount, bile” value ([2]; 1–2 h) was 75.2 ± 70.3 ng, the “PU-48 Concentration in bile” value ([2]; 1–2 h) was 123.1 ± 44.3 ng/mL and the “Accumulative Excretion Amount, bile” value ([2]; 2–4 h) was 218.9 ± 128.9 ng. The “Accumulative Excretion Percentage, bile” value ([2]; 2–4 h) was 0.0076 ± 0.0046%, the “Excretion Amount, bile” value ([2]; 2–4 h) was 65.3 ± 39.8 ng and the “PU-48 Concentration in bile” value ([2]; 2–4 h) was 84.7 ± 20.1 ng/mL. The “Accumulative Excretion Percentage, bile” value ([2]; 4–6 h) was 0.0085 ± 0.0044%, the “Excretion Amount, bile” value ([2]; 4–6 h) was 24.5 ± 14.3 ng and the “PU-48 Concentration in bile” value ([2]; 4–6 h) was 47.6 ± 19.4 ng/mL. The “Accumulative Excretion Percentage, bile” value ([2]; 6–8 h) was 0.0091 ± 0.0042%, the “Excretion Amount, bile” value ([2]; 6–8 h) was 18.7 ± 13.4 ng and the “PU-48 Concentration in bile” value ([2]; 6–8 h) was 41.1 ± 21.9 ng/mL. For the same molecule, the “Accumulative Excretion Amount, bile” value ([2]; 8–12 h) was 301.8 ± 105.8 ng, the “Accumulative Excretion Percentage, bile” value ([2]; 8–12 h) was 0.0105 ± 0.0037% and the “Excretion Amount, bile” value ([2]; 8–12 h) was 39.7 ± 45.9 ng. For the same molecule, the “PU-48 Concentration in bile” value ([2]; 8–12 h) was 33.3 ± 17.4 ng/mL, the “Accumulative Excretion Amount, bile” value ([2]; 12–24 h) was 339.9 ± 122.8 ng and the “Accumulative Excretion Percentage, bile” value ([2]; 12–24 h) was 0.0118 ± 0.0042%. For the same molecule, the “Excretion Amount, bile” value ([2]; 12–24 h) was 38.1 ± 37.4 ng, the “PU-48 Concentration in bile” value ([2]; 12–24 h) was 33.4 ± 15.5 ng/mL and the “Accumulative Excretion Amount, bile” value ([2]; 24–48 h) was 350.7 ± 124.1 ng. The “Accumulative Excretion Percentage, bile” value ([2]; 24–48 h) was 0.0122 ± 0.0043%, the “Excretion Amount, bile” value ([2]; 24–48 h) was 10.8 ± 3.2 ng and the “PU-48 Concentration in bile” value ([2]; 24–48 h) was 9.4 ± 5.4 ng/mL. For the same molecule, the “Accumulative Excretion Amount, bile” value ([2]; 48–72 h) was 355.5 ± 120.8 ng, the “Accumulative Excretion Percentage, bile” value ([2]; 48–72 h) was 0.0123 ± 0.0042% and the “Excretion Amount, bile” value ([2]; 48–72 h) was 4.8 ± 4.7 ng. The “PU-48 Concentration in bile” value ([2]; 48–72 h) was 5.1 ± 3.7 ng/mL, the “Accumulative Excretion Amount, bile” value ([2]; 72–96 h (within 96 h)) was 357.5 ± 120.1 ng and the “Accumulative Excretion Percentage, bile” value ([2]; 72–96 h (within 96 h)) was 0.0124 ± 0.0041% and 0.0124 ± 0.004% and 0.0124%. The “Excretion Amount, bile” value ([2]; 72–96 h) was 2.0 ± 1.8 ng, the “PU-48 Concentration in bile” value ([2]; 72–96 h) was 1.4 ± 0.9 ng/mL and the “Accumulative Excretion Amount, urine” value ([3]; 24–36 h) was 1058.2 ± 684.1 ng. The “Accumulative Excretion Amount, urine” value ([3]; 36–48 h) was 1216.6 ± 716.3 ng, the “Accumulative Excretion Percentage, urine” value ([3]; 36–48 h) was 0.0436 ± 0.0261% and the Diuretic activity ([4]; rodents, compared to the other thienoquinolin lead compounds) was “more potent diuretic activity”. The Diuretic activity ([4]; wild-type and UT-gene knockout mice) was “potent diuretic activity”.
